Assay results taken from article PMC5056392, “CD4-mimetic sulfopeptide conjugates display sub-nanomolar anti-HIV-1 activity and protect macaques against a SHIV162P3 vaginal challenge” (Scientific Reports, 2016).
Where two headings read alike, the source gives them in different places.

Assays:
SHIV = details: cited from earlier work
Source text: (§1) Similarly, HEC gel formulated cyanovirin was s ...

HIV-1 Bal = assay: TZM-bl antiviral assay, Bal; format: cell-based; details: Human immunodeficiency virus 1, BAL; Table 2; B-R5; 10^-3 MOI, TZM-bl cells, 48 h; mean of at least 2 independent experiments, triplicates
Procedure: (§2) The IC50 of the various mCD4-conjugates were measured in TZM-bl cells (NIH AIDS Reagent Program, Germantown, MD 20874, US). This cell line expresses high densities of CD4, CCR5 and CXCR4. It contains a luciferase reporter gene under control of HIV LTR, which will be transcribed and translated into luciferase protein, if the cells get infected with HIV and start producing Tat. Briefly, 50 μl of TZM-bl cells (1 × 10^5 cells/mL) supplemented with 30 μg/mL DEAE dextran were incubated with a 50 μl of a 10-fold serial dilution of the compounds under investigation in 96-well flat bottom plates, prior to inoculation with 50 μl of various viruses (see Tables & and 2; 50, 100 or 200 TCID50 was used depending on the virus). As a positive control, 50 μl of compound-free medium was used and as a negative control, 100 μl of medium was added to 100 μl of TZM-bl cells. All conditions were done in triplicates. The plates were incubated for 48 hours (37 °C, 5% CO2). […] Next, the luciferase activity was measured using a TriStar LB941 luminometer (Berthold Technologies GmbH & Co. KG., Bad Wildbad, Germany) and expressed in relative light units (RLU) as a percentage of positive control wells. IC50 were calculated in GraphPad Prism 5.03 using non-linear regression (GraphPad Software, San Diego, CA, USA).

HIV-1 IIIB = assay: TZM-bl antiviral assay, IIIB; format: cell-based; details: Human immunodeficiency virus 1, IIIB; Table 2; B-X4; 10^-3 MOI, TZM-bl cells, 48 h; mean of at least 2 independent experiments, triplicates
Procedure: as §2

HIV-1 MN = assay: TZM-bl antiviral assay, MN; format: cell-based; details: Human immunodeficiency virus 1; Table 2; B-X4; 10^-3 MOI, TZM-bl cells, 48 h; mean of at least 2 independent experiments, triplicates
Procedure: as §2

SHIV162P3 [1] = assay: TZM-bl antiviral assay, SHIV162P3; format: cell-based, SHIV; details: Table 2; B-R5; 10^-3 MOI, TZM-bl cells, 48 h; mean of at least 2 independent experiments, triplicates
Procedure: as §2

HIV-1 VI829 = assay: TZM-bl antiviral assay, VI829; format: cell-based; details: Human immunodeficiency virus 1; Table 2; C-R5; 10^-3 MOI, TZM-bl cells, 48 h; mean of at least 2 independent experiments, triplicates
Procedure: as §2

HIV-1 = details: vaginal gel formulation (Tenofovir) or vaginal ring (Dapivirin); cited from earlier work
Procedure: Microbicides offer distinct advantages as their use should reduce side effects associated with systemic treatment and they could prevent the establishment of viral founder populations. Up to now several molecules targeting the attachment and entry of HIV were tested in clinical trials, including surfactants, such as nonoxynol–9 and C31G that disrupt the viral lipid envelope and non-specific polyanions, such as carrageenan, cellulose sulfate, as well as a sulfonated naphthalene derivative (PRO2000), presumably mimicking heparan sulfate (HS) and blocking virus-cell interactions. ...

HIV-1 VI820 = assay: TZM-bl antiviral assay, VI820; format: cell-based; details: Human immunodeficiency virus 1; Table 2; A-X4R5; 10^-3 MOI, TZM-bl cells, 48 h; mean of at least 2 independent experiments, triplicates
Procedure: as §2

[2] = test system: HIV strains from different subtypes; assay: TZM-bl antiviral assay, whole panel of strains; format: cell-based, HIV-1; details: Human immunodeficiency virus 1, TZM-bl, read-out: active concentration across the panel
Procedure: as §2

TZM-bl cells = assay: WST-1 cytotoxicity assay; format: cell-based; details: Table 2, 50% cytotoxic concentration, WST-1, 48 h
Procedure: The water soluble tetrazolium-1 (WST-1) cell proliferation assay is based on the cleavage of the tetrazolium salt WST-1 to a formazan dye by a complex cellular mechanism. Because this bioreduction is dependent on the glycolytic production of NAD(P)H in viable cells, the amount of formazan dye formed is correlates directly to the number of viable cells in a culture. Quantification is done by measuring absorbance at 450 nm in a multiwell plate reader. TZMbl cells (10^4 cells/well) were plated in a 96-well plate and a serial dilution of compound was added. 48 h later, cell proliferation reagent was added and cell viability was measured compared to untreated control cultures. Cell viability was plotted against the compound concentration and non-linear regression analysis was performed to calculate the 50% cytotoxic concentration (CC50).

HIV-1 SF162 = assay: TZM-bl antiviral assay, SF162; format: cell-based; details: Human immunodeficiency virus 1; Table 2; B-R5; 10^-3 MOI, TZM-bl cells, 48 h; mean of at least 2 independent experiments, triplicates
Procedure: as §2

HIV-1 pZM247Fv2 = assay: microbe, parasite or virus in culture; format: cell-based; details: Human immunodeficiency virus 1, TZM-bl, 48 h, read-out: IC50 pZM247Fv2
Procedure: (§3) The IC50 of the various mCD4-conjugates were measured in TZM-bl cells (NIH AIDS Reagent Program, Germantown, MD 20874, US). This cell line expresses high densities of CD4, CCR5 and CXCR4. It contains a luciferase reporter gene under control of HIV LTR, which will be transcribed and translated into luciferase protein, if the cells get infected with HIV and start producing Tat. Briefly, 50 μl of TZM-bl cells (1 × 10^5 cells/mL) supplemented with 30 μg/mL DEAE dextran were incubated with a 50 μl of a 10-fold serial dilution of the compounds under investigation in 96-well flat bottom plates, prior to inoculation with 50 μl of various viruses (see Tables & and 2; 50, 100 or 200 TCID50 was used depending on the virus). As a positive control, 50 μl of compound-free medium was used and as a negative control, 100 μl of medium was added to 100 μl of TZM-bl cells. All conditions were done in triplicates. The plates were incubated for 48 hours (37 °C, 5% CO2). Subsequently, 120 μL of supernatants were removed, 75 μl of the luciferase substrate Steadylite (Perkin Elmer, Life Sciences, Zaventem, Belgium) were added to the wells and the plates were incubated at room temperature on an orbital shaker for 10 minutes. Next, the luciferase activity was measured using a TriStar LB941 luminometer (Berthold Technologies GmbH & Co. KG., Bad Wildbad, Germany) and expressed in relative light units (RLU) as a percentage of positive control wells. IC50 were calculated in GraphPad Prism 5.03 using non-linear regression (GraphPad Software, San Diego, CA, USA).

HIV-1 pREJO.c/2864 cl2 = assay: microbe, parasite or virus in culture; format: cell-based; details: Human immunodeficiency virus 1, TZM-bl, 48 h, read-out: IC50 pREJO.c/2864 cl2
Procedure: as §3

HIV-1 VI1888 (CRF01) = assay: microbe, parasite or virus in culture; format: cell-based; details: Human immunodeficiency virus 1, TZM-bl, 48 h, read-out: IC50 VI1888 (CRF01)
Procedure: as §3

HIV-1 p246F10 = assay: microbe, parasite or virus in culture; format: cell-based; details: Human immunodeficiency virus 1, TZM-bl, 48 h, read-out: IC50 P246F10
Procedure: as §3

HIV-1 pTHRO.c/2626 = assay: microbe, parasite or virus in culture; format: cell-based; details: Human immunodeficiency virus 1, TZM-bl, 48 h, read-out: IC50 pTHRO.c/2626
Procedure: as §3

HIV-1 pWITO.c/2474 = assay: microbe, parasite or virus in culture; format: cell-based; details: Human immunodeficiency virus 1, TZM-bl, 48 h, read-out: IC50 pWITO.c/2474
Procedure: as §3

HIV-1 Ca10-3 (CRF01) = assay: microbe, parasite or virus in culture; format: cell-based; details: Human immunodeficiency virus 1, TZM-bl, 48 h, read-out: IC50 Ca10-3 (CRF01)
Procedure: as §3

HIV-1 VI824 = assay: microbe, parasite or virus in culture; format: cell-based; details: Human immunodeficiency virus 1, TZM-bl, 48 h, read-out: IC50 VI824
Procedure: as §3

HIV-1 MP568 (CRF02) = assay: microbe, parasite or virus in culture; format: cell-based; details: Human immunodeficiency virus 1, TZM-bl, 48 h, read-out: IC50 MP568 (CRF02)
Procedure: as §3

SHIV162P3 [3] = details: TZM-bl cells; cited from earlier work
Source text: as §1

[4] = HEC gel formulated, applied at 0.5 to 2 mM

Q: For maraviroc, which protection (SHIV; 500 μM intravaginally) is on record?
A: 50%

Q: What about the macaques remaining uninfected (SHIV; 6 mM intravaginally) of the same molecule?
A: 6 of 7

Q: Which results are given for `Cc1cc(C)c(Nc2ccnc(Nc3ccc(C#N)cc3)n2)c(C)c1` [TMC120 Dapivirine, Dapivirine]?
A: IC50 (HIV-1 Bal): 1.7 nM; IC50 (HIV-1 IIIB): 0.84 nM; IC50 (HIV-1 MN): 1.5 nM; IC50 (SHIV162P3 [1]): > 1000 nM; IC50 (HIV-1 VI829): 1.3 nM; reduction in HIV-1 acquisition (HIV-1): up to 40%; IC50 (HIV-1 VI820): 2 nM; IC50 [2]: 1 to 2 nM; CC50 (TZM-bl cells): 2524 nM; IC50 (HIV-1 SF162): 1.3 nM; IC50 (HIV-1 pZM247Fv2): 2.3 nM; IC50 (HIV-1 pREJO.c/2864 cl2): 1.6 nM; IC50 (HIV-1 VI1888 (CRF01)): 2.1 nM; IC50 (HIV-1 p246F10): 1.4 nM; IC50 (HIV-1 pTHRO.c/2626): 1.9 nM; IC50 (HIV-1 pWITO.c/2474): 1.1 nM; IC50 (HIV-1 Ca10-3 (CRF01)): 1.2 nM; IC50 (HIV-1 VI824): 1.2 nM; IC50 (HIV-1 MP568 (CRF02)): 1.1 nM

Q: Which “reduction in HIV-1 acquisition” value (HIV-1) does the source give for `C[C@H](Cn1cnc2c(N)ncnc21)OCP(=O)(O)O` [Tenofovir] here?
A: up to 40%

Q: Which IC50 (SHIV162P3 [3]) does the source give for `COc1ccnc2[nH]cc(C(=O)C(=O)N3CCN(C(=O)c4ccccc4)C[C@H]3C)c12` [BMS-378806] here?
A: 5.5 nM

Q: And the protection (SHIV; administered at 5.5 mM)?
A: 75%

B1: cyanovirin: HEC gel formulated cyanovirin (protein, UniProt P81180 1-101, looked up)
Cyanovirin-N: LGKFSQTCYNSAIQGSVLTSTCERTNGGYNTSSIDLNSVIENVDGSLKWQPSNFIETCRNTQLAGSSELAAECKTRAQQFVSTKINLDDHIANIDGTLKYE
modifications: HEC gel formulation
Q: Which animals protected (SHIV; [4]) does the source give for B1 here?
A: 5 out of 6

Q: What about the protection (SHIV; [4]) of the same molecule?
A: 83%
